Measured values taken from US10730839B2, “Quinolines as cytoprotective agents” (priority 2016, dated 2020).

Assays:
[1] = system: CSM14.1 neuronal cells; assay: Cell survival assay (thapsigargin-treated cells, CELLTITER-GLO luminescence); assay type: cell-based; details: compound 2 hrs before about 15 μM thapsigargin, overnight
Method: CSM14.1 neuronal cells were maintained in Complete Medium at 32° C.; wherein the Complete Medium contained Dulbecco's modified eagle medium (DMEM) with 10% fetal bovine serum (FSB), 1% L-glutamine, 100 IU/mL penicillin, and 100 μg/mL streptomycin. The cells were recovered from cultures by trypsinization and then seeded in 384 well plates (Greiner #781098) at a concentration of 1,000 cells/well in 20 μL of DMEM Assay Medium, wherein the DMEM Assay Medium contained 2% FBS, 100 IU/mL penicillin, and 100 μg/mL streptomycin. Seeding was performed using a MultiDrop Combi reagent broadcaster. The plates were incubated overnight at 32° C. A test compound was prepared by 2-fold serial dilution in 100% DMSO using a BIOMEK® 2000 liquid handler (Beckman Coulter). A dose-response curve containing 10 concentrations of the test compound was obtained. Using a BIOMEK® FX liquid handler (Beckman Coulter), 2.5 μL of the test compound was transferred from the 100% DMSO serial dilution plate to an intermediate plate containing 47.5 μL of DMEM Assay Medium containing 2% FBS, 100 IU/mL penicillin, and 100 μg/mL streptomycin and mixed. To reduce or eliminate the interference from the compound's precipitation, 6 μL of the diluted compound was immediately transferred to the assay plate to achieve a high compound concentration of 100 μM in 99% DMEM Assay Medium and 1% DMSO. After the assay plates were incubated for 2 hrs, 4 μL of 112.5 μM thapsigargin (TG) (DMSO stock diluted into Assay TC Medium) was dispensed into each testing well with a MultiDrop Combi reagent broadcaster for a final concentration of about 15 μM TG. The tissue culture media (4 μL) containing vehicle only was transferred manually to each control cell using a 16 channel electronic pipette. After the plates were incubated overnight (about 16 to 24 hrs), CELLTITER-GLO® (Promega) (16 μL) was added to all wells and luminescence was measured. High luminescence indicates cell survival. The biological results are summarized in Table 1 where A represents a cell viability EC50 less than 1 μM and B represents a value greater than 1 μM and less than 10 μM and C represents a value equal to or greater than 10 μM and less than 20 μM.

[2] = system: HEK293 cells; N2a cells; assay: Cell rescue assay: protection against thapsigargin (TG)-induced cell-death (ALAMARBLUE); assay type: cell-based, Human; Mouse; details: Homo sapiens; compound 20 μM, 2 hrs before thapsigargin (15 μM HEK293, 1 μM N2a), 24 hrs; viability as % RFU compared to control; read-out: Cell Survival %
Method: Protection against Thapsigargin (TG)-induced Cell-death. Human embryonic kidney (HEK293) cells were grown in Dulbecco's Modified Eagle's Medium (DMEM) with 10% FBS and 1% antibiotic antimycotic solution (ABAM). Mouse neuroblastoma (N2a) cells were grown in 1:1 DMEM:OPTI-MEM® with 5% FBS and 1% ABAM. All cells were grown in 10% CO2 in a humidified environment of the incubator. Cells grown in 96-well plates were exposed to a test compound (20 μM) for 2 hrs before addition of thapsigargin (15 μM for HEK293 cells and 1 μM for N2a cells) to induce ER stress. After incubation in cell-culture incubator for 24 hrs, ALAMARBLUE® regent (10% v/v) was added to the wells. Fluorescence reading was taken 2 hrs after the addition of the ALAMARBLUE® regent. Cell-viability was calculated as a percentage of relative fluorescence unit (RFU) compared to control. […] The biological results are summarized in Table 2, where each compound was tested at 20 μM and where A represents a viability greater than 50%, B represents a viability greater than 10% and less than 50%, C represents a value at or below 10%.

[3] = system: SH-SY5Y cells; assay: Cell rescue assay: protection against ß-amyloid-induced cell toxicity; assay type: cell-based; details: Homo sapiens, 96 h, 7.5 uM compound, AB 1-42 at 10 uM, 4 days, OD at 490 nm, read-out: Cell Survival % (cell rescue)
Method: Protection against ß-amyloid-induced cell toxicity. Chonpathompikunlert et al. Eu. J. Pharmacol. 2011, 650, 544-549. Human SH-SY5Y cells are suspended in media containing 2% FBS and 2× Gentamicin. Transfer 100 ul/well culture to 96-well plate (20,000 cells/well; passage #5) and incubate overnight. Prepare compound samples at 30 uM. Add 50 ul of the samples to the cells [[…]] and incubate 3 hours. Make stock of 40 uM AB 1-42 peptide in assay media. Transfer 50 ul/well to cells/compounds in assay plate. The final assay volume is 200 ul/well, containing 2% FBS, 2× Gentamicin, 7.5 uM compound and AB 1-42 at 10 uM. Incubate for 4 days then add 20 ul of Promega Substrate Cell Titer 96 Aqueous One Solution Reagent to each well. Incubate 37 OC and read OD at 490 nm. The results are summarized in Table 3, where A represents a value equal to or greater than 50% cell rescue, B represents a value greater than 10% and less than 50% cell rescue, and C represents a value greater than 1% and less than or equal to 10% cell rescue.

[4] = target: T1, SERCA (Homo sapiens, UniProt P16615); assay: Ca-ATPase assay (NADH-linked, enzyme-coupled ATPase assay); assay type: biochemical; details: microsomal preparations from HEK 293 cells, Vmax from Hill fit of ATPase calcium-dependence, relative to controls
T1 construct: microsomal preparations from HEK 293 cells; endogenous in cells; host or cells: HEK 293 cells (microsomal preparation)
Method: A Ca-ATPase assay was performed using microsomal preparations from HEK 293 cells at a series of calcium concentrations corresponding to the physiological range, relative to controls. The ATP hydrolysis rate was measured over a range of calcium concentrations in the presence of test compounds using an NADH-linked, enzyme-coupled ATPase assay adapted for 96-well microplates, with Vmax determined by fitting the ATPase calcium-dependence to the Hill function. Each well contained 2 μg or 7 μg of SR vesicles (optimized for skeletal or cardiac SR, respectively), 50 mM MOPS (pH 7.0), 100 mM KCl, 5 mM MgCl2, 1 mM EGTA, 0.2 mM NADH, 1 mM phosphoenol pyruvate, 5 IU pyruvate kinase, 5 IU lactate dehydrogenase, and 3.5 μg/mL A23187 (a calcium ionophore). CaCl2 was added to set free [Ca^2+] to the specific values. The assay was started upon addition of ATP at a final concentration of 5 mM, and read in a SpectraMax Plus microplate spectrophotometer. The results are summarized in Table 4, where A represents an increase in SERCA Vmax greater than or equal to 50% and B represents a value greater than 10% and less than 50%.

[5] = system: Ob/ob mice; assay: Effect of a SERCA agonist on the level of blood glucose; assay type: in vivo; details: Mus musculus, ip, 96 h, 50 mg/kg i.p. once a day for 5 days, fasting glucose at baseline and 4 days after administration, read-out: Glucose level reduction
Method: Ob/ob mice (10 weeks old, n=7) were intraperitoneally (i.p.) injected with 100 μL of a solution containing 0 (vehicle) or 50 mg/kg of a test compound once a day for a total of 5 days. Fasting glucose was measured at baseline and 4 days after the administration of the test compound. Glucose levels were measured in blood samples drawn from the tail vein using a handheld glucose sensor. Compound effects on blood glucose are shown in Table 5 where A represents a 10-20% reduction in blood glucose, B represents a 21-30% reduction in blood glucose, and C represents a greater than 30% reduction in blood glucose levels.

T1 sequence (P16615 whole entry): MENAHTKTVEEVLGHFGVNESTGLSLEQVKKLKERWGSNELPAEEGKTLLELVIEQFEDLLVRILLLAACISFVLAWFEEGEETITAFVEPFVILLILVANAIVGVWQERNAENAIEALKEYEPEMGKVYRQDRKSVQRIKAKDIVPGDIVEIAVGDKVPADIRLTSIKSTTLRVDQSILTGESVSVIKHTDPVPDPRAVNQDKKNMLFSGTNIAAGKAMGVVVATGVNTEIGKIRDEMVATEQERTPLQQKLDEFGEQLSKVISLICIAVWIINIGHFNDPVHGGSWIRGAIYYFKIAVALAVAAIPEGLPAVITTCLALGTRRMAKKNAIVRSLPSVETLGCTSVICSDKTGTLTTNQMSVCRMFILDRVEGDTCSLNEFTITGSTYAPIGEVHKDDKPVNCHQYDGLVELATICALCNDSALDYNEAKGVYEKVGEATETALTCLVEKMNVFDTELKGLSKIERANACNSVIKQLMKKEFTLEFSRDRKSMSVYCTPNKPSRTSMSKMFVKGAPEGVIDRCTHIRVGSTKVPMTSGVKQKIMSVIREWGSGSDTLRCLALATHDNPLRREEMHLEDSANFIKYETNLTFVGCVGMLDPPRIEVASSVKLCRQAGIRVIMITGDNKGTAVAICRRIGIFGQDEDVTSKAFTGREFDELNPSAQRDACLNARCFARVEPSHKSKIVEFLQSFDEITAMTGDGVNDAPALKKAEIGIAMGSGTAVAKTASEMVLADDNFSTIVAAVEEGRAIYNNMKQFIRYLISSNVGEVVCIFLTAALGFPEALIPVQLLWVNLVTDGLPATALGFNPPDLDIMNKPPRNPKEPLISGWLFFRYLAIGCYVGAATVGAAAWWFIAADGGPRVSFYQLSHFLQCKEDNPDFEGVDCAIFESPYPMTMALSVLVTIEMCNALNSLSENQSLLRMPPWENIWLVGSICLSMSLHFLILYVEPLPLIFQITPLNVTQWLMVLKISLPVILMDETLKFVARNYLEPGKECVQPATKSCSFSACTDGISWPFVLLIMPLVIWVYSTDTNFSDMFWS

Row | Compound | EC50 [1] | viability at 20 µM [2] | viability at 7.5 µM [3] | SERCA Vmax Increase [4] | inhibition in vivo at 50 mg/kg [5]
1 | Cc1ccc2cccc(C(=O)Nc3ccc(C4CC4)s3)c2n1 [B5, N-(5-Cyclopropylthiophen-2-yl)-2-methylquinoline-8-carboxamide] | 1 to 10 µM | ≤ 10% | 1 to 10% | A (an increase in SERCA Vmax greater than or equal to 50%) | 10 to 20%
2 | Cc1ccc2cccc(C(=O)Nc3cc(Br)cs3)c2n1 [B1, N-(4-Bromothiophen-2-yl)-2-methylquinoline-8-carboxamide] | 1 to 10 µM | > 50% | 10 to 50% | A (an increase in SERCA Vmax greater than or equal to 50%) | > 30%
3 | Cc1ccc2cccc(C(=O)Nc3ccc(Cl)cc3)c2n1 [A2, N-(4-Chlorophenyl)-2-methylquinoline-8-carboxamide] | 1 to 10 µM | > 50% | ≥ 50% | B (a value greater than 10% and less than 50%) | > 30%
4 | Cc1ccc2cccc(C(=O)Nc3ccc(C)s3)c2n1 [B3, 2-Methyl-N-(5-methylthiophen-2-yl)quinoline-8-carboxamide] | 1 to 10 µM | ≤ 10% | 1 to 10% | B (a value greater than 10% and less than 50%) | 10 to 20%
5 | Cc1ccc2cccc(C(=O)Nc3cccc(F)c3)c2n1 [A3, N-(3-Fluorophenyl)-2-methylquinoline-8-carboxamide] | 10 to 20 µM | 10 to 50% | 10 to 50% | B (a value greater than 10% and less than 50%) | 10 to 20%
6 | Cc1ccc2cccc(C(=O)Nc3ccc(OC(C)C)cc3)c2n1 [A1, N-(4-Isopropoxyphenyl)-2-methylquinoline-8-carboxamide] | 1 to 10 µM | > 50% | 10 to 50% | A (an increase in SERCA Vmax greater than or equal to 50%) | > 30%
7 | Cc1ccc2cccc(C(=O)Nc3ccc(Br)s3)c2n1 [B2, N-(5-Bromothiophen-2-yl)-2-methylquinoline-8-carboxamide] | 1 to 10 µM | > 50% | 10 to 50% | A (an increase in SERCA Vmax greater than or equal to 50%) | 21 to 30%
8 | Cc1ccc(NC(=O)c2cccc3ccc(C)nc23)cc1 [A5, N-(4-Methylphenyl)-2-methylquinoline-8-carboxamide] | 1 to 10 µM | > 50% | ≥ 50% | B (a value greater than 10% and less than 50%) | 21 to 30%
9 | Cc1ccc2cccc(C(=O)Nc3ccc(N(C)C)cc3)c2n1 [A4, N-(4-(Dimethylamino)phenyl)-2-methylquinoline-8-carboxamide] | < 1 µM | 10 to 50% | 10 to 50% | A (an increase in SERCA Vmax greater than or equal to 50%) | 21 to 30%
10 | Cc1ccc2cccc(C(=O)Nc3cccs3)c2n1 [B4, 2-Methyl-N-(thiophen-2-yl)quinoline-8-carboxamide] | 1 to 10 µM | > 50% | ≥ 50% | B (a value greater than 10% and less than 50%) | > 30%
